Measurements taken from PubChem BioAssay AID256 (DTP/NCI, 2004).
Toxic doses and inconclusive results are not listed.

System: CD2F1 mice, L1210 leukemia ip, survival T/C
Test: NCI In Vivo Anticancer Drug Screen. Data for tumor model L1210 Leukemia (intraperitoneal) in CD2F1 (CDF1) mice
Conditions: endpoint: mean survival time, vehicle: saline with Tween-80, higher = longer survival
Outline: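 Ratio T/C, where T is the treated-group value and C the vehicle-dosed control value, from mice implanted with a transplantable tumor.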

Compound | T/C (dose: 100.0 mg/kg/injection, schedule: Q04DX002 (ip)) | T/C (dose: 200.0 mg/kg/injection, schedule: Q04DX002 (ip)) | T/C (dose: 400.0 mg/kg/injection, schedule: Q04DX002 (ip)) | T/C (dose: 50.0 mg/kg/injection, schedule: Q01DX009 (ip)) | T/C (dose: 100.0 mg/kg/injection, schedule: Q01DX009 (ip))
Cc1c(F)cccc1NC(=O)OC(C)C | 97 % of control | 102 % of control | 94 % of control |  | 
CC1(C)C=Cc2ccccc21 |  |  |  | 113 % of control | 113 % of control
